Assay results: patent US7452997B2 (priority 2004, dated 2008)

Each molecule was assayed against T1, human CB1 receptor (Homo sapiens, UniProt P21554) (assay: biochemical).
T1 construct: expressed in transfected cells; host or cells: SK-N-MC cells, stably transfected with pcDNA3 CB-1 (human); semi-purified membrane pellet
T1 sequence (P21554 whole entry): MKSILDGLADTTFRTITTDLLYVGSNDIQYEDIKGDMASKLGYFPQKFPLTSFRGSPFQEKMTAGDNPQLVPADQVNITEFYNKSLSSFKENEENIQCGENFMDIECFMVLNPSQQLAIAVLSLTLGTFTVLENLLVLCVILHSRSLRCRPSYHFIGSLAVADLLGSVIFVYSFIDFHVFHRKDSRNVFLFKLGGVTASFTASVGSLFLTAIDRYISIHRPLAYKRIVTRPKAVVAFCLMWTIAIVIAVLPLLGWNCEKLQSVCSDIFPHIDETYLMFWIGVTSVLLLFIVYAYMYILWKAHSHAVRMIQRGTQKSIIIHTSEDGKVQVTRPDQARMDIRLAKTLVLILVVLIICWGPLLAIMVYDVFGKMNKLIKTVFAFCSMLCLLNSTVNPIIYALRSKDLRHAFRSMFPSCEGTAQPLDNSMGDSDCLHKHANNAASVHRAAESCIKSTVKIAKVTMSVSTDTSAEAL
Type: binding
Protocol: Binding Assay for CB1 or CB2 Agonists or Inverse Agonists
The human CB1 and CB2 receptors were stably expressed in SK-N-MC cells transfected with pcDNA3 CB-1 (human) or pcDNA3 CB-2 (human). The cells were grown in T-180 cell culture flasks under standard cell culture conditions at 37° C. in a 5% CO2 atmosphere. The cells were harvested by trysinization and homogenized in a homogenization buffer (10 mM Tris, 0.2 mM MgCl2, 5 mM KCl, with protease inhibitors aprotinin, leupeptin, pepstatin A and bacitracin) and centrifuged (2000 g). The supernatant was then centrifuged in 2M sucrose (31,300 g) to produce a semi-purified membrane pellet. The pellet was resuspended in homogenization and store at −80° C.
On the day of the assay, the pellet was thawed on ice and diluted in assay buffer (50 mM Tris-HCl, 5 mM MgCl2, 2.5 mM EDTA, 0.5 mg/mL fatty acid free bovine serum albumin, pH 7.5). […] The plate was covered and incubated for 90 minutes at 30° C. The contents were then aspirated onto a Packard […] GF/C filter bottom plate prewet with 0.5% polyethyleneimine. The wells of the polypropylene plate were rinsed and aspirated seven times with a 0.9% saline-0.5% TWEEN 20 solution. The […] plate was dried, a scintillation cocktail was added to each well and the counts representing binding were quantitated in a TOPCOUNT scintillation counter.
The IC50 binding values for compounds tested were calculated by linear regression and were obtained from studies in which varying compound concentrations were used.
Work on CC(c1ccccc1)n1nc(C(=O)N[C@@H](C)C2CCCCC2)c2c1CCCC2 (mixture of isomers) [Cpd 249, 1-(1-phenyl-ethyl)-4,5,6,7-tetrahydro-1H-indazole-3-carboxylic acid [(1S)-1-cyclohexyl-ethyl]-amide] yielded an IC50 of 50 nM.
CC12CCC(C1)C(C)(C)C2NC(=O)c1nn(C2CCCCC2)c2c1CC(=O)CC2 (stereo not shown) [Cpd 96, 1-cyclohexyl-5-oxo-4,5,6,7-tetrahydro-1H-indazole-3-carboxylic acid (1,3,3-trimethyl-bicyclo[2.2.1]hept-2-yl)-amide] showed an IC50 of 9500 nM.
With O=C(NC(Cc1ccc(OCc2ccccc2)cc1)C(=O)O)c1nn(Cc2ccccc2)c2c1CCCC2 (stereo not shown) [compound 76] the IC50 was 1960 nM.
Molecule CC(C)(C)OC(=O)NC1CCc2nn(C3CCCCC3)c(C(=O)NC3C4CC5CC(C4)CC3C5)c2C1 (stereo not shown) [compound 84] has an IC50 of 400 nM.
In the case of O=C(NC1C2CC3CC(C2)CC1C3)c1nn(C2CCCCC2)c2c1CC(C(=O)Nn1cnnc1)CC2 (stereo not shown) [compound 95], the IC50 is reported as 6400 nM.
In the case of CC(C)(C)C1CCc2c(c(C(=O)NC3C4CC5CC(C4)CC3C5)nn2C2CCCCC2)C1 (stereo not shown) [compound 98], the IC50 is reported as 20500 nM.
Molecule CC(C)(C)C1CCc2c(c(C(=O)NCC34CC5CC(CC(C5)C3)C4)nn2C2CCCCC2)C1 (stereo not shown) [compound 102] has an IC50 of 30900 nM.
Work on CN(C(=O)NC1CCc2c(c(C(=O)NC3C4CC5CC(C4)CC3C5)nn2C2CCCCC2)C1)c1ccccc1 (stereo not shown) [compound 103] yielded an IC50 of 2000 nM.
Work on Cc1ccc(S(=O)(=O)NC2CCc3c(c(C(=O)NC4C5CC6CC(C5)CC4C6)nn3C3CCCCC3)C2)cc1 (stereo not shown) [compound 105] yielded an IC50 of 8500 nM.
CN(C)S(=O)(=O)NC1CCc2c(c(C(=O)NC3C4CC5CC(C4)CC3C5)nn2C2CCCCC2)C1 (stereo not shown) [compound 106] was tested, and the IC50 was 12700 nM.
Molecule O=C(N[C@@H]1C2CCC(C2)[C@@H]1COCc1ccccc1Br)c1nn(C2CCCCC2)c2c1CCCC2 (stereo partly shown) [compound 108] has an IC50 of 2400 nM.
O=C(NC1CCCCCCC1)c1nn(C2CCCCC2)c2c1CCCC2 [compound 128] gave an IC50 of 10 nM.
O=C(NCCN1CCOCC1)c1nn(Cc2ccccc2)c2c1CCCC2 [compound 175] showed an IC50 of 2160 nM.
Molecule C[C@H](NC(=O)c1nn(-c2ccc(Cl)cc2Cl)c2c1CCCC2=Cc1ccc(F)cc1)c1ccccc1 [compound 308] has an IC50 of 19 nM.
O=C(NN1CCCCCC1)c1nn(-c2ccc(Cl)cc2Cl)c2c1CCCC2=Cc1ccc(F)cc1 [compound 339] was tested, and the IC50 was 8 nM.
For C[C@@H](NC(=O)c1nn(-c2ccc(Cl)cc2Cl)c2c1CCCC2=Cc1cccs1)C1CCCCC1 [compound 341], the IC50 was 20 nM.
O=C(NN1CCCCC1)c1nn(-c2ccc(Cl)cc2Cl)c2c1CCCC2=Cc1cccs1 [compound 342] showed an IC50 of 41 nM.
O=C(NN1CCCCCC1)c1nn(-c2ccc(Cl)cc2Cl)c2c1CCCC2=Cc1cccs1 [compound 343] showed an IC50 of 37 nM.
CC1CCCC(C)N1NC(=O)c1nn(-c2ccc(Cl)cc2Cl)c2c1CCCC2=Cc1cccs1 (stereo not shown) [compound 344] was tested, and the IC50 was 53 nM.
For O=C(NN1CCCC1)c1nn(-c2ccc(Cl)cc2Cl)c2c1CCCC2=Cc1cccs1 [compound 345], the IC50 was 70 nM.
O=C(NN1CC2CCCC2C1)c1nn(-c2ccc(Cl)cc2Cl)c2c1CCCC2=Cc1cccs1 (stereo not shown) [compound 346] gave an IC50 of 33 nM.
O=C(NN1CCCCC1)c1nn(-c2ccc(Cl)cc2Cl)c2c1CCCC2=Cc1ccsc1 [compound 347] gave an IC50 of 18 nM.
For O=C(NN1CCCCCC1)c1nn(-c2ccc(Cl)cc2Cl)c2c1CCC/C2=C\c1ccsc1 [compound 348], the IC50 was 11 nM.
CC1CCCC(C)N1NC(=O)c1nn(-c2ccc(Cl)cc2Cl)c2c1CCC/C2=C\c1ccsc1 (stereo not shown) [compound 349] was tested, and the IC50 was 40 nM.
Work on O=C(NN1CC2CCCC2C1)c1nn(-c2ccc(Cl)cc2Cl)c2c1CCC/C2=C\c1ccsc1 (stereo not shown) [compound 350] yielded an IC50 of 17 nM.
Molecule C[C@@H](NC(=O)c1nn(-c2ccc(Cl)cc2Cl)c2c1CCCC2=Cc1ccsc1)C1CCCCC1 [compound 351] has an IC50 of 12 nM.
C[C@@H](NC(=O)c1nn(-c2ccc(Cl)cc2Cl)c2c1CCC/C2=C\c1ccsc1)c1ccccc1 [compound 353] gave an IC50 of 16 nM.
O=C(N[C@H](CO)c1ccccc1)c1nn(-c2ccc(Cl)cc2Cl)c2c1CCCC2=Cc1ccsc1 [compound 356] showed an IC50 of 77 nM.
Work on O=C(NN1CCCC1)c1nn(-c2ccc(Cl)cc2Cl)c2c1CCCC2=Cc1ccsc1 [compound 357] yielded an IC50 of 21 nM.
C[C@@H](NC(=O)c1nn(-c2ccc(Cl)cc2Cl)c2c1CCC/C2=C\c1ccoc1)c1ccccc1 [compound 358] showed an IC50 of 13 nM.
C[C@@H](NC(=O)c1nn(-c2ccc(Cl)cc2Cl)c2c1CCCC2=Cc1ccoc1)C1CCCCC1 [compound 360] showed an IC50 of 12 nM.
Work on CC1CCCC(C)N1NC(=O)c1nn(-c2ccc(Cl)cc2Cl)c2c1CCCC2=Cc1ccoc1 (stereo not shown) [compound 362] yielded an IC50 of 38 nM.
For O=C(NN1CCCCCC1)c1nn(-c2ccc(Cl)cc2Cl)c2c1CCC/C2=C\c1ccoc1 [compound 363], the IC50 was 13 nM.
O=C(NN1CCCCC1)c1nn(-c2ccc(Cl)cc2Cl)c2c1CCC/C2=C\c1ccoc1 [compound 364] gave an IC50 of 16 nM.
With O=C(NN1CC2CCCC2C1)c1nn(-c2ccc(Cl)cc2Cl)c2c1CCC/C2=C\c1ccoc1 (stereo not shown) [compound 365] the IC50 was 16 nM.
O=C(NN1CCCC1)c1nn(-c2ccc(Cl)cc2Cl)c2c1CCCC2=Cc1ccoc1 [compound 368] gave an IC50 of 39 nM.
With C[C@@H](NC(=O)c1nn(-c2ccc(Cl)cc2Cl)c2c1CCCC2=Cc1ccco1)c1ccccc1 [compound 371] the IC50 was 39 nM.
With O=C(NN1CCCCCC1)c1nn(-c2ccc(Cl)cc2Cl)c2c1CCCC2=Cc1ccco1 [compound 373] the IC50 was 20 nM.
With O=C(NN1CCCCC1)c1nn(-c2ccc(Cl)cc2Cl)c2c1CCC/C2=C\c1ccco1 [compound 374] the IC50 was 19 nM.
O=C(NN1CC2CCCC2C1)c1nn(-c2ccc(Cl)cc2Cl)c2c1CCC/C2=C\c1ccco1 (stereo not shown) [compound 376] gave an IC50 of 16 nM.
For O=C(NN1CCCC1)c1nn(-c2ccc(Cl)cc2Cl)c2c1CCC/C2=C\c1ccco1 [compound 377], the IC50 was 43 nM.
O=C(NN1CC2CCCC2C1)c1nn(-c2ccc(Cl)cc2Cl)c2c1CCCC2=Cc1ccc(Br)cc1 (stereo not shown) [compound 380] was tested, and the IC50 was 32 nM.
C[C@@H](NC(=O)c1nn(-c2ccc(Cl)cc2Cl)c2c1CCC/C2=C\c1ccc(Br)cc1)c1ccccn1 [compound 381] gave an IC50 of 15 nM.
C[C@@H](NC(=O)c1nn(-c2ccc(Cl)cc2Cl)c2c1CCCC2=Cc1ccc(Br)cc1)C1CCCCC1 [compound 382] gave an IC50 of 5 nM.
In the case of C[C@@H](NC(=O)c1nn(-c2ccc(Cl)cc2Cl)c2c1CCCC2=Cc1ccc(Br)cc1)c1ccccc1 [compound 383], the IC50 is reported as 10 nM.
O=C(NN1CCCCC1)c1nn(-c2ccc(Cl)cc2Cl)c2c1CCC/C2=C\c1ccc(Br)cc1 [compound 384] gave an IC50 of 21 nM.
C[C@@H](NC(=O)c1nn(-c2ccc(Cl)cc2Cl)c2c1CCCC2=Cc1ccc(Cl)s1)C1CCCCC1 [compound 385] gave an IC50 of 7 nM.
Work on C[C@@H](NC(=O)c1nn(-c2ccc(Cl)cc2Cl)c2c1CCC/C2=C\c1ccc(Cl)s1)c1ccccc1 [compound 386] yielded an IC50 of 11 nM.
O=C(NN1CCCCC1)c1nn(-c2ccc(Cl)cc2Cl)c2c1CCC/C2=C\c1ccc(Cl)s1 [compound 387] was tested, and the IC50 was 33 nM.
Molecule O=C(NN1CCCCCC1)c1nn(-c2ccc(Cl)cc2Cl)c2c1CCC/C2=C\c1ccc(Cl)s1 [compound 388] has an IC50 of 15 nM.
CC1CCCC(C)N1NC(=O)c1nn(-c2ccc(Cl)cc2Cl)c2c1CCC/C2=C\c1ccc(Cl)s1 (stereo not shown) [compound 389] gave an IC50 of 14 nM.
Molecule O=C(NN1CC2CCCC2C1)c1nn(-c2ccc(Cl)cc2Cl)c2c1CCC/C2=C\c1ccc(Cl)s1 (stereo not shown) [compound 390] has an IC50 of 20 nM.
